From ChEMBL document CHEMBL4837239, “Identification of Thieno[3,2-d]pyrimidine Derivatives as Dual Inhibitors of Focal Adhesion Kinase and FMS-like Tyrosine Kinase 3” (J Med Chem, 2021)
Blank lines part the entries; values can stand above or below the compound they belong to.

How the values were obtained:
BaF3 [1] = experiment: Antiproliferative activity against mouse Ba/F3 cells harbouring FLT3 ITD D835Y mutant assessed as growth inhibition measured after 72 hrs by CellTiter-Glo assay; format: functional; conditions: Mus musculus, BaF3
BaF3 [2] = experiment: Antiproliferative activity against mouse Ba/F3 cells harbouring FLT3 D835Y mutant assessed as growth inhibition measured after 72 hrs by CellTiter-Glo assay; format: functional; conditions: Mus musculus, BaF3
BaF3 [3] = experiment: Antiproliferative activity against mouse Ba/F3 cells harbouring FLT3 ITD F691L mutant assessed as growth inhibition measured after 72 hrs by CellTiter-Glo assay; format: functional; conditions: Mus musculus, BaF3
BaF3 [4] = experiment: Antiproliferative activity against mouse Ba/F3 cells harbouring FLT3 ITD F691I mutant assessed as growth inhibition measured after 72 hrs by CellTiter-Glo assay; format: functional; conditions: Mus musculus, BaF3
[5] = Inhibition of FLT3 D835Y (unknown origin); design: species or system Homo sapiens
BaF3 [6] = experiment: Antiproliferative activity against mouse Ba/F3 cells assessed as growth inhibition measured after 72 hrs by CellTiter-Glo assay; format: functional; conditions: Mus musculus, BaF3
[7] = Metabolic stability in human liver microsomes assessed as compound remaining at 1 uM measured after 1 hr; format: ADME, Microsome; conditions: read-out: Stabilty
BaF3 [8] = experiment: Antiproliferative activity against mouse Ba/F3 cells harbouring FLT3 ITD mutant assessed as growth inhibition measured after 72 hrs by CellTiter-Glo assay; format: functional; conditions: Mus musculus, BaF3
CYP2D6 = CYP2D6 (Homo sapiens, UniProt P10635); experiment: Inhibition of CYP2D6 (unknown origin) at 10 uM relative to control; format: ADME
CYP2D6, sequence (P10635 whole entry): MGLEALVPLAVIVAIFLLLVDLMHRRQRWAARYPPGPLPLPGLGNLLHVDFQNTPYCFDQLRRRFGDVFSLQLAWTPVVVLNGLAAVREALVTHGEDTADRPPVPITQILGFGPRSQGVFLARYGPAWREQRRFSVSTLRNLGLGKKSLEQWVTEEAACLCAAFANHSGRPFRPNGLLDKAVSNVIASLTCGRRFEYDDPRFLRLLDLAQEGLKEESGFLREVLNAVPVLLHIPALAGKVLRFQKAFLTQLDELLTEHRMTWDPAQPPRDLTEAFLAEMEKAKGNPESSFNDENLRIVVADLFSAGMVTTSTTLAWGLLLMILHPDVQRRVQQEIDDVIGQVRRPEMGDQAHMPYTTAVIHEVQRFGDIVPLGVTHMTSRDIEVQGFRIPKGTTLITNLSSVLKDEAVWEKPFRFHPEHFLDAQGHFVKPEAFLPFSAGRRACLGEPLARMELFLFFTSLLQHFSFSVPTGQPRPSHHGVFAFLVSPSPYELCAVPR

Focal adhesion kinase 1 = Focal adhesion kinase 1 (Homo sapiens, UniProt Q05397); experiment: Inhibition of recombinant FAK (unknown origin) by radiometric kinase assay
Focal adhesion kinase 1, sequence (Q05397 whole entry): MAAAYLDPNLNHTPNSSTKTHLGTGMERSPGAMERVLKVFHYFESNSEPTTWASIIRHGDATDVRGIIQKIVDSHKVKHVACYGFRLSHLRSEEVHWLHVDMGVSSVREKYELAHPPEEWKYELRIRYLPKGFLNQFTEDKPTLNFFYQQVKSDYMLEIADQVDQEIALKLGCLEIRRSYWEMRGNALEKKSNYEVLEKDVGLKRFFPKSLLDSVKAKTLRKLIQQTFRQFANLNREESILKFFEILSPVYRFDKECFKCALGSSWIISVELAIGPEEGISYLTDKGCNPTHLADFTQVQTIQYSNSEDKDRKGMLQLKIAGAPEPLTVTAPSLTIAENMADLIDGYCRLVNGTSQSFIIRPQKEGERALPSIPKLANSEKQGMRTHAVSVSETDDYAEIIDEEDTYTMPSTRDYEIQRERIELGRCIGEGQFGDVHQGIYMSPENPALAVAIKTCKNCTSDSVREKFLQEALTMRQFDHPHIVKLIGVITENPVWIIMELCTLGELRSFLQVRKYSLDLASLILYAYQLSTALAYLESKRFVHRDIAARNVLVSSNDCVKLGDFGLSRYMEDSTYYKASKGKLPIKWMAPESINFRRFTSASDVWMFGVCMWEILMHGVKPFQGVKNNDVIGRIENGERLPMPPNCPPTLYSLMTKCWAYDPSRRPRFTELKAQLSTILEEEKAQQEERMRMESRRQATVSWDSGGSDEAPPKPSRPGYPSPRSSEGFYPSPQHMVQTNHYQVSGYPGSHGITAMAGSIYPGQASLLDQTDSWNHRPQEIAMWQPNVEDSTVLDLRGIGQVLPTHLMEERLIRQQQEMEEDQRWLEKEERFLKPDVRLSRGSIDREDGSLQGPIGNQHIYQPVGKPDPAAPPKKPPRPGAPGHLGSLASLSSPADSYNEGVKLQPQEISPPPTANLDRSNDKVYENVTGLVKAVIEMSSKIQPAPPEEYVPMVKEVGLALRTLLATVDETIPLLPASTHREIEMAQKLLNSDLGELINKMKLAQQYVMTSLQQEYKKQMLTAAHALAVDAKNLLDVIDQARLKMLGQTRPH

CYP3A4 = CYP3A4 (Homo sapiens, UniProt P08684); experiment: Inhibition of CYP3A4 (unknown origin) at 10 uM relative to control; format: ADME
CYP3A4, sequence (P08684 whole entry): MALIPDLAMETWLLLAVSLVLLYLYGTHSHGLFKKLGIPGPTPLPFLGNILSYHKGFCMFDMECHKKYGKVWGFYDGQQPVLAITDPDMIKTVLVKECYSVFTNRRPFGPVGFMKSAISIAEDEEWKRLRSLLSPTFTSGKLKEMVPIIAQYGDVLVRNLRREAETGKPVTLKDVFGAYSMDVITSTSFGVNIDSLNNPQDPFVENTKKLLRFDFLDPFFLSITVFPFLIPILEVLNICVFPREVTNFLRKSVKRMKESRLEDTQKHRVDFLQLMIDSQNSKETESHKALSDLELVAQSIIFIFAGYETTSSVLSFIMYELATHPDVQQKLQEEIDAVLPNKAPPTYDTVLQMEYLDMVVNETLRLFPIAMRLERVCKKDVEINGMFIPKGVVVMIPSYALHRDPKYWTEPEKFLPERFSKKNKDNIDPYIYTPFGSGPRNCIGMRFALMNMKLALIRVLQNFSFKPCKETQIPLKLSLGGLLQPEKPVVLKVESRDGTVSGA

CYP2C9 = CYP2C9 (Homo sapiens, UniProt P11712); experiment: Inhibition of CYP2C9 (unknown origin) at 10 uM relative to control; format: ADME
CYP2C9, sequence (P11712 whole entry): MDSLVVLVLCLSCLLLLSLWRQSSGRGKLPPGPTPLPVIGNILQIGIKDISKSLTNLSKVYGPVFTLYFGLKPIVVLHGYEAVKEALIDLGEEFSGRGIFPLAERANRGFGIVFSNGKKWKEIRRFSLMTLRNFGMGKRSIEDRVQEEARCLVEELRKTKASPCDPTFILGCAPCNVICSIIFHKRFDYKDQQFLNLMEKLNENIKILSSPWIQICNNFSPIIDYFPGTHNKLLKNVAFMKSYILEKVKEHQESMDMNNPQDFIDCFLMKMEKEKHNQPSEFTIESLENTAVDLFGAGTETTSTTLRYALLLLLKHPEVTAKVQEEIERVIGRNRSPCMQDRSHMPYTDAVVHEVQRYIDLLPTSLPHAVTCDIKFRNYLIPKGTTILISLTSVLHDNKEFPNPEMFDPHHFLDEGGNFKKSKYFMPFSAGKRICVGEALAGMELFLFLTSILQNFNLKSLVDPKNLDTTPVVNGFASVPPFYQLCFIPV

HCT-116 = experiment: Antiproliferative activity against human HCT-116 cells assessed as growth inhibition measured after 72 hrs by CellTiter-Glo assay; format: functional
CYP1A2 = molecular target: T1, CYP1A2 (Homo sapiens, UniProt P05177); experiment: Inhibition of CYP1A2 (unknown origin) at 10 uM relative to control; format: ADME
T1 sequence (P05177 whole entry): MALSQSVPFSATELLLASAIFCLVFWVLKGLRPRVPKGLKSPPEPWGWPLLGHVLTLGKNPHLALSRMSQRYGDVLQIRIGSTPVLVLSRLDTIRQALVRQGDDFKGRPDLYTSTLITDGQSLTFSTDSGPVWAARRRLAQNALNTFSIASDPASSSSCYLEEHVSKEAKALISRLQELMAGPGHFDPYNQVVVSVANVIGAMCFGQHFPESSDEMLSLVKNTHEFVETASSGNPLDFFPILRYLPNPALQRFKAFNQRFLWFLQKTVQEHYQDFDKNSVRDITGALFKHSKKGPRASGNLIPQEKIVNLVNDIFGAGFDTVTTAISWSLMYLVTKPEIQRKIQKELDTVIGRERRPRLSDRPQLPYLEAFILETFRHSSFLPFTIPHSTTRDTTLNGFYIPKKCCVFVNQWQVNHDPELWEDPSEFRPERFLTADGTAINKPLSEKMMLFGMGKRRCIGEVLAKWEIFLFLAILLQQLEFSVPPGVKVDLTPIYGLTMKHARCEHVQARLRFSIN

MDA-MB-231 = experiment: Antiproliferative activity against human MDA-MB-231 cells assessed as growth inhibition measured after 72 hrs by CellTiter-Glo assay; format: functional
CYP2C19 = CYP2C19 (Homo sapiens, UniProt P33261); experiment: Inhibition of CYP2C19 (unknown origin) at 10 uM relative to control; format: ADME
CYP2C19, sequence (P33261 whole entry): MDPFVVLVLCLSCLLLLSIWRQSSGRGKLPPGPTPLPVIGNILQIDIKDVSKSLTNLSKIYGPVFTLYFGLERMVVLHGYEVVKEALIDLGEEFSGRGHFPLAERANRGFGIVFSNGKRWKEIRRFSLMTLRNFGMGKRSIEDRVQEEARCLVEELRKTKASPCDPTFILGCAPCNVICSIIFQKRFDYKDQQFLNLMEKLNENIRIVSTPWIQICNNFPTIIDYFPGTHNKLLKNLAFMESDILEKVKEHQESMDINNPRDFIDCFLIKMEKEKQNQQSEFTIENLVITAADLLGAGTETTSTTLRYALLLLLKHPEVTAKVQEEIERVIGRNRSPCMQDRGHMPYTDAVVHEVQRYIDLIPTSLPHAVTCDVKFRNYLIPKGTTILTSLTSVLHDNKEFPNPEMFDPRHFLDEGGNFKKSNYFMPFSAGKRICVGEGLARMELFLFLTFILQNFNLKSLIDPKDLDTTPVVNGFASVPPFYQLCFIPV

[9] = Antiproliferative activity against human A375P cells assessed as growth inhibition measured after 72 hrs by CellTiter-Glo assay; format: functional

Compound: CS(=O)(=O)Nc1cccc(-c2csc3cnc(NC4CCCCC4)nc23)c1
IC50 (Focal adhesion kinase 1): 717 nM
GI50 (HCT-116): 11300 nM
GI50 (MDA-MB-231): 7730 nM
GI50 [9]: 17800 nM

Compound: CS(=O)(=O)Nc1cccc(-c2csc3cnc(NC4CC4)nc23)c1
IC50 (Focal adhesion kinase 1): 2350 nM
GI50 (HCT-116): 43200 nM
GI50 (MDA-MB-231): 43500 nM
GI50 [9]: 36600 nM

Compound: COc1cc(Nc2ncc3scc(-c4ccccc4NS(C)(=O)=O)c3n2)cc(OC)c1OC
IC50 (Focal adhesion kinase 1): 78 nM

Compound: COc1cc(Nc2ncc3scc(-c4ccccc4S(C)(=O)=O)c3n2)cc(OC)c1OC
IC50 (Focal adhesion kinase 1): 668 nM

Compound: COc1cc(Nc2ncc3scc(-c4cccc(S(C)(=O)=O)c4)c3n2)cc(OC)c1OC
IC50 (Focal adhesion kinase 1): 91 nM

Compound: CNC(=O)c1ccccc1-c1csc2cnc(Nc3cc(OC)c(OC)c(OC)c3)nc12
IC50 (Focal adhesion kinase 1): 55 nM

Compound: CN(C)c1ccc(Nc2ncc3scc(-c4cccc(NS(C)(=O)=O)c4)c3n2)cc1
remaining at 1 h, 1 µM [7]: 63.8%
IC50 (Focal adhesion kinase 1): 18 nM
GI50 (HCT-116): 2270 nM
GI50 (MDA-MB-231): 3320 nM
GI50 [9]: 3480 nM

Compound: CS(=O)(=O)Nc1cccc(-c2csc3cnc(N)nc23)c1
IC50 (Focal adhesion kinase 1): 4030 nM
GI50 (HCT-116): 33200 nM
GI50 (MDA-MB-231): 27800 nM
GI50 [9]: 43300 nM

Now from value to compound, other results behind:

GI50 (BaF3 [1]): 90.7 nM
GI50 (BaF3 [2]): 46.5 nM
GI50 (BaF3 [3]): 222 nM
GI50 (BaF3 [4]): 390 nM
IC50 [5]: < 0.5 nM
GI50 (BaF3 [6]): 405 nM
remaining at 1 h, 1 µM [7]: 83.7%
GI50 (BaF3 [8]): 1100 nM
inhibition at 10 µM (CYP2D6): 86.4%
IC50 (Focal adhesion kinase 1): 12 nM
inhibition at 10 µM (CYP3A4): 72.1%
inhibition at 10 µM (CYP2C9): 89.3%
GI50 (HCT-116; Homo sapiens, HCT-116): 240 nM
inhibition at 10 µM (CYP1A2): 35.1%
GI50 (MDA-MB-231; Homo sapiens, MDA-MB-231): 280 nM
inhibition at 10 µM (CYP2C19): 79.4%
Compound: CCN1CCN(c2ccc(Nc3ncc4scc(-c5cccc(OC)c5)c4n3)cc2)CC1
GI50 ([9]; Homo sapiens, A375P): 510 nM

GI50 (BaF3 [1]): 28.2 nM
GI50 (BaF3 [2]): 7.1 nM
GI50 (BaF3 [3]): 140 nM
GI50 (BaF3 [4]): 299 nM
IC50 [5]: < 0.5 nM
GI50 (BaF3 [6]): 596 nM
remaining at 1 h, 1 µM [7]: 68.9%
GI50 (BaF3 [8]): 20 nM
IC50 (Focal adhesion kinase 1): 31 nM
GI50 (HCT-116; Homo sapiens, HCT-116): 9130 nM
GI50 (MDA-MB-231; Homo sapiens, MDA-MB-231): 820 nM
Compound: CCN1CCN(c2ccc(Nc3ncc4scc(-c5cccnc5)c4n3)cc2)CC1
GI50 ([9]; Homo sapiens, A375P): 710 nM

IC50 (Focal adhesion kinase 1): 361 nM
GI50 (HCT-116; Homo sapiens, HCT-116): 990 nM
GI50 (MDA-MB-231; Homo sapiens, MDA-MB-231): 1010 nM
Compound: CCN1CCN(c2ccc(Nc3ncc4scc(-c5ccccc5[N+](=O)[O-])c4n3)cc2)CC1
GI50 ([9]; Homo sapiens, A375P): 1500 nM

IC50 (Focal adhesion kinase 1): 49 nM
Compound: COc1cc(Nc2ncc3scc(-c4cccc(C(=O)O)c4)c3n2)cc(OC)c1OC

IC50 (Focal adhesion kinase 1): 59 nM
GI50 (HCT-116; Homo sapiens, HCT-116): 4350 nM
GI50 (MDA-MB-231; Homo sapiens, MDA-MB-231): 4640 nM
Compound: CCN1CCN(c2ccc(Nc3ncc4scc(-c5cccc(C(=O)O)c5)c4n3)cc2)CC1
GI50 ([9]; Homo sapiens, A375P): 12300 nM

IC50 (Focal adhesion kinase 1): 26 nM
Compound: COc1cc(Nc2ncc3scc(-c4cccnc4)c3n2)cc(OC)c1OC

GI50 (BaF3 [1]): 13.2 nM
GI50 (BaF3 [2]): 6.1 nM
GI50 (BaF3 [3]): 226 nM
GI50 (BaF3 [4]): 243 nM
IC50 [5]: < 0.5 nM
GI50 (BaF3 [6]): 468 nM
remaining at 1 h, 1 µM [7]: 60.2%
GI50 (BaF3 [8]): 34.7 nM
IC50 (Focal adhesion kinase 1): 11 nM
GI50 (HCT-116; Homo sapiens, HCT-116): 170 nM
GI50 (MDA-MB-231; Homo sapiens, MDA-MB-231): 420 nM
Compound: CCN1CCN(c2ccc(Nc3ncc4scc(-c5cccc(S(=O)(=O)NC)c5)c4n3)cc2)CC1
GI50 ([9]; Homo sapiens, A375P): 400 nM

remaining at 1 h, 1 µM [7]: 44.1%
IC50 (Focal adhesion kinase 1): 29 nM
GI50 (HCT-116; Homo sapiens, HCT-116): 370 nM
GI50 (MDA-MB-231; Homo sapiens, MDA-MB-231): 880 nM
Compound: CCN1CCN(c2ccc(Nc3ncc4scc(-c5cnc6ccccc6c5)c4n3)cc2)CC1
GI50 ([9]; Homo sapiens, A375P): 8050 nM

IC50 (Focal adhesion kinase 1): 321 nM
GI50 (HCT-116; Homo sapiens, HCT-116): 1100 nM
GI50 (MDA-MB-231; Homo sapiens, MDA-MB-231): 950 nM
Compound: CCOC(=O)c1cccc(-c2csc3cnc(Nc4ccc(N5CCN(CC)CC5)cc4)nc23)c1
GI50 ([9]; Homo sapiens, A375P): 1650 nM
